Experiments:
ENPP1 in mouse plasma = biological target: T1, ENPP1 in mouse plasma (Mus musculus, UniProt P06802); assay: Inhibition of cGAMP degradation in mouse plasma; format: biochemical; conditions: 50 mM EDTA, 37 °C
T1 sequence (P06802 85-906 limits assumed): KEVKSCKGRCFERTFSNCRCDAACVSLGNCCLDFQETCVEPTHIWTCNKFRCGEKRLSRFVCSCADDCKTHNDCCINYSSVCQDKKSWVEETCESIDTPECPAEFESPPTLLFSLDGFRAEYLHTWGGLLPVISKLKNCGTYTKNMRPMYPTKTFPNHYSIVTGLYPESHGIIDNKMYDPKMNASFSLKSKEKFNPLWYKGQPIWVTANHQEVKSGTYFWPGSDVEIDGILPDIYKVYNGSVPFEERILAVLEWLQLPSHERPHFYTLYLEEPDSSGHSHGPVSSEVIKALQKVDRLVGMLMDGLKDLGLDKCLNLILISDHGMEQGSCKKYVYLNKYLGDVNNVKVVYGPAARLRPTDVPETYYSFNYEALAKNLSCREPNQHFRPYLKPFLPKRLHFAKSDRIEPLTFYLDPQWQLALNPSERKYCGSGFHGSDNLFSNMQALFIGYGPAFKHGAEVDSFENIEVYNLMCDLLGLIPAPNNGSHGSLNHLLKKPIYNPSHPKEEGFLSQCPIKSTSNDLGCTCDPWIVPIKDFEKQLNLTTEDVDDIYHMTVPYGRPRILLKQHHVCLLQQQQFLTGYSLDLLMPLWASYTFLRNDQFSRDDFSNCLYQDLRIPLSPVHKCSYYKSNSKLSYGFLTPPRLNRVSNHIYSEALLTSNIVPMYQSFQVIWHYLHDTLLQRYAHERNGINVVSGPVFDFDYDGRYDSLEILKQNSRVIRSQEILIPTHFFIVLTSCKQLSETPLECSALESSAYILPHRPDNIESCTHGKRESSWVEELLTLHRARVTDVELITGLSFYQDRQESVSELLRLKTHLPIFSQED

ENPP1 in human plasma = ENPP1 in human plasma (Homo sapiens, UniProt P22413); conditions: 50 mM EDTA, 37 °C
[1] = Plasma kinetics: half-life of radiolabeled cGAMP in mouse plasma; format: in vitro ADME; conditions: 5 μM cGAMP, 37 °C
Mouse ENPP1 [2] = biological target: T2, Mouse ENPP1 (Mus musculus, UniProt P06802); conditions: substrate cGAMP, pH 7.4
T2 sequence (P06802 92-905 isoform P06802-2): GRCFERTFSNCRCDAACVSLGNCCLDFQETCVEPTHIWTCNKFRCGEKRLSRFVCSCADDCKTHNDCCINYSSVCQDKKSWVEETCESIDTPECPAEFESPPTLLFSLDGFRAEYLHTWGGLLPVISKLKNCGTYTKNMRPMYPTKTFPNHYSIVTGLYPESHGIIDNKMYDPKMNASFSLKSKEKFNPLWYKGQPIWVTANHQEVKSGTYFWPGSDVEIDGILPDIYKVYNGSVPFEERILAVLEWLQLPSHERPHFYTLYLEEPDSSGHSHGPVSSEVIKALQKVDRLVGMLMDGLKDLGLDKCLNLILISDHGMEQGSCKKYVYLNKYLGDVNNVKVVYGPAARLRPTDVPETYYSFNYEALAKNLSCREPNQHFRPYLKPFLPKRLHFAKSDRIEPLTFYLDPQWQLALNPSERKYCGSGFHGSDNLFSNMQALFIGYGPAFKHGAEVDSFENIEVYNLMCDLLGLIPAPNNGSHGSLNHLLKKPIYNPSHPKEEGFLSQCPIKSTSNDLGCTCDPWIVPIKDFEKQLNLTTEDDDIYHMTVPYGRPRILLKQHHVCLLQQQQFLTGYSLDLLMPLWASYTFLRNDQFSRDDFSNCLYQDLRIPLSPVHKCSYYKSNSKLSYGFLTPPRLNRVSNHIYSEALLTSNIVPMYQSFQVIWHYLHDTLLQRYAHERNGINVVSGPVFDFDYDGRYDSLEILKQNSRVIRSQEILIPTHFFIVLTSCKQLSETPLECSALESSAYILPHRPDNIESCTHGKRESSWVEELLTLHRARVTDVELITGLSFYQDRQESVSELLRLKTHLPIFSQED

[3] = Plasma kinetics: half-life of radiolabeled cGAMP in human plasma; format: in vitro ADME; conditions: based on 5 healthy donors, 5 μM cGAMP, 37 °C
hERG channel = hERG channel (Homo sapiens, UniProt Q12809); assay: hERG channel inhibition assay; conditions: at 25 μM
Mouse ENPP1 [4] = biological target: T2, Mouse ENPP1; assay: In vitro ENPP1 activity assay with cGAMP as substrate; format: biochemical; conditions: Ki at pH 7.4

ENPP1 in human plasma, sequence (P22413 103-925 limits assumed): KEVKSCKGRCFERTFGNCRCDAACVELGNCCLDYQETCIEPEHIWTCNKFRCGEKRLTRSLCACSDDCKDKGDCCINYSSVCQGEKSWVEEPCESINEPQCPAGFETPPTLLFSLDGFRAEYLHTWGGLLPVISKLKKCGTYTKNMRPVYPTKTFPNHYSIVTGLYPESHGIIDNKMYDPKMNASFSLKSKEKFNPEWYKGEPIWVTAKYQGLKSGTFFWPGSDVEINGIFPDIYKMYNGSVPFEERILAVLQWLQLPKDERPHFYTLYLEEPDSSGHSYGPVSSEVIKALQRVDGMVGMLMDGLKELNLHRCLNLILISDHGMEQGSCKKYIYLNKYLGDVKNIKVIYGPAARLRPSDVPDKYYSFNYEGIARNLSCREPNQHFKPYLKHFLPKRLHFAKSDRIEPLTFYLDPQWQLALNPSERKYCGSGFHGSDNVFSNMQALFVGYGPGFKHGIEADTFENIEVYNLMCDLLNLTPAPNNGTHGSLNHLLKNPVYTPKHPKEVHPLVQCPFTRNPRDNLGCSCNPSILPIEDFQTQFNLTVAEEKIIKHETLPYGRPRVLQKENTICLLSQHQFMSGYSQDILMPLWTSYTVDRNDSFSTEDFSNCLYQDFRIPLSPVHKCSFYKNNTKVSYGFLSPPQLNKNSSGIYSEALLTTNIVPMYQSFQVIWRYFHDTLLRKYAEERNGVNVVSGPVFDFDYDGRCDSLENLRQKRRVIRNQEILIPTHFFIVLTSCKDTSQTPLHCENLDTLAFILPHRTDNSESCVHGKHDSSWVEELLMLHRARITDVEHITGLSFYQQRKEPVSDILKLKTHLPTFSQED
hERG channel, sequence (Q12809 whole entry): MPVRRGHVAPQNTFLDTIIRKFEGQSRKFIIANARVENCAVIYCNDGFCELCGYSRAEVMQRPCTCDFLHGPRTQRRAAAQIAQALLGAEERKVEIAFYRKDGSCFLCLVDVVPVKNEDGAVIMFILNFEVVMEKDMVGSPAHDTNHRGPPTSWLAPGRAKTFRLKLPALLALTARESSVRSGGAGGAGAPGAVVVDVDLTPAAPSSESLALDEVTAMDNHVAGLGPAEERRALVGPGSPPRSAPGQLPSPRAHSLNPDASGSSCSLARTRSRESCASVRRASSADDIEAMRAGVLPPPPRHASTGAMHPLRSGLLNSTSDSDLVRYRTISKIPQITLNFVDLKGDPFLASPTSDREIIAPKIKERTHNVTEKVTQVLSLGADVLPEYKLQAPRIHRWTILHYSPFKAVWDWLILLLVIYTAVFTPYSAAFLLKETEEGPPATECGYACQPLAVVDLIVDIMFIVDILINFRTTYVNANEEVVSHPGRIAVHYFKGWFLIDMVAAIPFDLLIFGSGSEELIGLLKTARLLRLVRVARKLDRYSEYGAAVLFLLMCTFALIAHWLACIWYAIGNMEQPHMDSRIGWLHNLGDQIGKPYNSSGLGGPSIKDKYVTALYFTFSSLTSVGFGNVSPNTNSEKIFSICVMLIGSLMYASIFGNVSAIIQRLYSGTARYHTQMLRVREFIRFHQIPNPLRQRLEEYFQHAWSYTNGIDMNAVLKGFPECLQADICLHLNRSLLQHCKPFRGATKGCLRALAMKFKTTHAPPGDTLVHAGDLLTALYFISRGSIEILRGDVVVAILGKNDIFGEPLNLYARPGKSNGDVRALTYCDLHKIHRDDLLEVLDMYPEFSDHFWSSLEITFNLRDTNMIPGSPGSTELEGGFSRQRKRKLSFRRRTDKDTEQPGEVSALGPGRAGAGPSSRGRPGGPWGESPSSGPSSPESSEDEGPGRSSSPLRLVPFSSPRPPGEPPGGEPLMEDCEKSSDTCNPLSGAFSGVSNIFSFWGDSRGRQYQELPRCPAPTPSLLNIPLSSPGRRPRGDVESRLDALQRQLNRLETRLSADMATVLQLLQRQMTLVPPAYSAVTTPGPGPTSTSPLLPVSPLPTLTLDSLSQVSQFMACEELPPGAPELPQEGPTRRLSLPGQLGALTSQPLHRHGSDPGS

O=C(O)CN(CCN(CC(=O)O)CC(=O)O)CC(=O)O [EDTA]
effect on cGAMP degradation (ENPP1 in mouse plasma): abrogated cGAMP degradation | effect on cGAMP degradation (ENPP1 in human plasma): abrogated cGAMP degradation

Nc1nc2c(ncn2[C@@H]2O[C@@H]3COP(=O)(O)O[C@H]4[C@@H](O)[C@H](n5cnc6c(N)ncnc65)O[C@@H]4COP(=O)(O)O[C@@H]2[C@@H]3O)c(=O)[nH]1 [cGAMP, 2’,3’-cyclic GMP-AMP]
t1/2 of cGAMP [1]: 16 min | Km (Mouse ENPP1 [2]): 240 µM | t1/2 of cGAMP [3]: 30 to 60 min

COc1cc2ncnc(N3CCC(CCP(=O)(O)O)CC3)c2cc1OC [compound 15]
hERG inhibition (hERG channel): no inhibition

COc1ccc2ncnc(N3CCC(CCP(=O)(O)O)CC3)c2c1 [compound 25]
loss in potency compared to compound 15 (Mouse ENPP1 [4]): 100 fold

COc1cc2nccc(N3CCC(CCP(=O)(O)O)CC3)c2cc1OC [compound 46]
loss in potency compared to compound 15 (Mouse ENPP1 [4]): 3 fold

— paper PMC7680421 (Cell chemical biology, 2020)
